pIC50: −log10 of the molar value. Like-named read-outs stand apart in the source and are kept apart here.
Legend:
[1] = biological target: T1, CREBBP (1084-1701) (Homo sapiens, UniProt Q92793); assay: Biochemical assay for CREBBP (1084-1701), SAMDI; details: read-out: CREBBP Biochemistry IC50
T1 construct: measured in the following biochemical assay using CREBBP (1084-1701); purchased
Outline: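 CREBBP (1084-1701) preincubated with compound 30 min at RT, then substrate mix (biotin-H3 11-25 K14R/K23R peptide, acetyl-CoA) added for 30 min at RT. Reaction stopped with formic acid, neutralised with sodium bicarbonate. Peptide acetylation read by SAMDI mass spectrometry to derive IC50.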

[2] = biological target: T2, EP300 (P300(1048-1664)) (Homo sapiens, UniProt Q09472); assay: Biochemical assay for EP300, SAMDI; details: read-out: EP300 Biochemistry IC50
T2 construct: P300(1048-1664)
T2 sequence (Q09472 1048-1664): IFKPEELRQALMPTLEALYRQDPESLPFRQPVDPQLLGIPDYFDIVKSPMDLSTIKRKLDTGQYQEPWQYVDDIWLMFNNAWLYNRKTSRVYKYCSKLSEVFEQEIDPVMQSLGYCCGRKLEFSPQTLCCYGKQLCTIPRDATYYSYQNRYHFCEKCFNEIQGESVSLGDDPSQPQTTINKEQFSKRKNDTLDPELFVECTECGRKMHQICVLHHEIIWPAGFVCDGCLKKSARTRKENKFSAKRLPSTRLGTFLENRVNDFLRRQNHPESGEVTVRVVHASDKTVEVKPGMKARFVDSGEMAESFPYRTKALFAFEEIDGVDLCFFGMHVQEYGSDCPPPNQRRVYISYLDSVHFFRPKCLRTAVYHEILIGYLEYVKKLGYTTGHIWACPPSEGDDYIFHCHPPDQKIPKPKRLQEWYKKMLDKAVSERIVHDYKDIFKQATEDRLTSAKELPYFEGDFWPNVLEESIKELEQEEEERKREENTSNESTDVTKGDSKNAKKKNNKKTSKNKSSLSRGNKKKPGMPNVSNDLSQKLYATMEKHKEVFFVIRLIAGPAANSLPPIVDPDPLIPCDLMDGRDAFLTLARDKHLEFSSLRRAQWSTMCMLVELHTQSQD
From the text: The following example describes materials and methods relating to a biochemical assay for EP300. IC50 values (micromolar (μM)) are summarized in Table 1, Table 2, and Table 3 under the column labeled: “EP300 Biochemistry IC50 (micromolar).”

[3] = test system: 647V cells; assay: High throughput proliferation (HTP) assay; assay type: cell-based; details: read-out: CREBBP HTP IC50
Outline: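 Exponentially growing 647V cells in DMEM with 15% FBS were treated in triplicate with increasing compound concentrations at 37° C, 5% CO2. Viable cell number was read by CellTiter-Glo luminescence on day 7; IC50 in micromolar.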

[4] = test system: H3K18Ac in HB-CLS-2 cells; assay: H3K18AC in-cell western (ICW) assay; assay type: cell-based; details: read-out: CREBBP ICW IC50
Outline: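 HB-CLS-2 cells seeded 16–24 hours before 2 hr compound treatment at 37° C, 5% CO2, then methanol-fixed. H3K18Ac detected with rabbit monoclonal primary (overnight, 4° C) and 800CW anti-rabbit secondary; DRAQ5 stained DNA. Plates imaged at 700 and 800 nm for integrated intensity; IC50 in μM.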

[5] = Homo sapiens, 647-V, high throughput proliferation
[6] = Homo sapiens, 647-V, high throughput proliferation, 647V cells
[7] = H3K18Ac in-cell western, HB-CLS-2 cells

T1 sequence (Q92793 1084-1701): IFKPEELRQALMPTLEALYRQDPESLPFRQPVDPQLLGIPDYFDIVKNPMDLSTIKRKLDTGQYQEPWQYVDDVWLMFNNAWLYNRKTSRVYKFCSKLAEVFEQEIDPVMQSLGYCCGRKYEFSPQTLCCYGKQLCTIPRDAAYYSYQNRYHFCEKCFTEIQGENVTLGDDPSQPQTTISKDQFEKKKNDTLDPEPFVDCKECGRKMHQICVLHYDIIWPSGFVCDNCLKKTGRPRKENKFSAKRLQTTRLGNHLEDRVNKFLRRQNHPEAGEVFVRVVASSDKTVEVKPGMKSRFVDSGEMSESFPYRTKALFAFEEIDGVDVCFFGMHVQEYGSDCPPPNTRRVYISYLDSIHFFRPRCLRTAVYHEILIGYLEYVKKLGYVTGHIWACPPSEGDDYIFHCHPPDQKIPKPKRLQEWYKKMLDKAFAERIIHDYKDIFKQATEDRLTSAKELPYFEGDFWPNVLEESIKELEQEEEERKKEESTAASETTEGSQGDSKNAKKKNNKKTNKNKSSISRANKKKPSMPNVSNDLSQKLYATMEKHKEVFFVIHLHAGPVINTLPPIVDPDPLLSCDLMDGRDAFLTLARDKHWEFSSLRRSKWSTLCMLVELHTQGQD

Row | Structure (SMILES) | pIC50 ([1]; SAMDI) | pIC50 ([2]; EP300, SAMDI) | pIC50 [3, 5] | pIC50 ([4]; H3K18Ac in-cell western) | pIC50 [3, 6] | pIC50 [4, 7] | pIC50 ([1]; Peptide #233, Acetyl-CoA, SAMDI mass spectrometry) | pIC50 ([2]; P300(1048-1664), Peptide #233, Ac-CoA, SAMDI mass spectrometry) | pIC50 ([3]; Homo sapiens, 647-V, 168 h, 647V cells, day 7, CellTiter-Glo) | pIC50 ([4]; 2 h, H3K18Ac in HB-CLS-2 cells, 2 hrs compound incubation) | pIC50 ([3]; high throughput proliferation)
1 | CCn1ncc(CN(C)C(=O)c2nc(-c3ccc4[nH]c(C)nc4c3)nc3ccc(Cl)cc23)c1C [Compound 39] | 6.19 | 6.17 | 6.60 | 6.47 |  |  |  |  |  |  | 
2 | CCn1ncc(CN(C)C(=O)c2cc(-c3cnc(OCCNC)cn3)nc3ccc(Cl)cc23)c1C [Compound 413] | 4.68 | 5.13 |  |  | 5.30 | 5.19 |  |  |  |  | 
3 | CCn1ncc(CN(C)C(=O)c2nc(-c3cc(C)c(OCCCNC)c(NC)c3)nc3ccc(Cl)cc23)c1C [Compound 451] | 5.52 | 5.41 | 5.64 | 4.89 |  |  |  |  |  |  | 
4 | CCn1ncc(CN(C)C(=O)c2nc(-n3cc(CCN(C)C)cn3)nc3ccc(Cl)cc23)c1C [Compound 405] | 5.24 | 5.57 |  |  | 5.77 | 5.80 |  |  |  |  | 
5 | CCc1cc(CN(C)C(=O)c2cc(-c3ccc(NCCN(C)C)c(C)n3)nc3ccc(Cl)cc23)on1 [Compound 590] | 6.47 | 6.13 | 6.41 | 6.40 |  |  |  |  |  |  | 
6 | CCc1ncc(CN(C)C(=O)c2cc(-c3ccc(NC4CCN(C)C4)c(C)n3)nc3ccc(Cl)cc23)n1C (stereo not shown) [Compound 642] |  |  |  |  |  |  | 7.55 | 8.04 | 7.48 | 7.06 | 
7 | CCc1ncc(CN(C)C(=O)c2nc(-c3cc(C)nc(NCCNC)c3)nc3ccc(COC)cc23)n1C [Compound 527] | 7.17 | 7.67 | 6.53 | 6.10 |  |  |  |  |  |  | 
8 | CCn1ncc(CN(C)C(=O)c2nc(-c3cc(C)c4nc[nH]c4c3)nc3ccc(COC)cc23)c1C [Compound 439] | 6.77 | 6.20 | 6.12 | 6.04 |  |  |  |  |  |  | 
9 | CCn1ncc(CN(C)C(=O)c2cc(-c3csc(C)n3)nc3ccc(Cl)cc23)c1C [Compound 90] | 6.47 | 6.68 |  | 5.80 |  |  |  |  |  |  | 5.82
10 | CCn1ncc(CN(C)C(=O)c2nc(-c3cnnc(C(=O)NC)c3)nc3ccc(Cl)cc23)c1C [Compound 443] | ≤ 4.30 | ≤ 4.30 | 4.70 | 4.70 |  |  |  |  |  |  | 
11 | CCn1ncc(CN(C)C(=O)c2cc(-c3cc4n[nH]cc4cn3)nc3ccc(COC)cc23)c1C [Compound 506] | 7.19 | 8.12 | 6.25 | 6.73 |  |  |  |  |  |  | 
12 | CCn1ncc(CN(C)C(=O)c2nc(-c3ccc(OCCN(C)S(C)(=O)=O)c(OC)c3)nc3ccc(Cl)cc23)c1C [Compound 114] | 5.28 | 5.37 | 5.55 | 5.55 |  |  |  |  |  |  | 
13 | CCn1ncc(CN(C)C(=O)c2nc(-c3ccc(OCCN4CCCC4)cc3Cl)nc3ccc(Cl)cc23)c1C [Compound 40] | 6.96 | 6.89 | 6.66 | 6.46 |  |  |  |  |  |  | 
14 | CCn1ncc(CN(C)C(=O)c2nc(-c3cc(-c4ncc[nH]4)n(C)n3)nc3ccc(Cl)cc23)c1C [Compound 495] | 7.53 | 7.79 | 6.86 | 6.82 |  |  |  |  |  |  | 
15 | CCc1nc(-c2cc(C(=O)N(C)Cc3cnc(CC)n3C)c3cc(COC)ccc3n2)ccc1NCCNC [Compound 486] | 7.22 | 7.52 | 7.05 | 6.50 |  |  |  |  |  |  | 
16 | CCc1nc(-c2cc(C(=O)N(C)Cc3onc(CC)c3C)c3cc(COC)ccc3n2)ccc1NCCN(C)C [Compound 593] | 7.27 | 6.76 | 6.99 | 6.77 |  |  |  |  |  |  | 
17 | CCn1ncc(CN(C)C(=O)c2cc(-c3ccc(NC)c(C)n3)nc3ccc(Cl)cc23)c1C [Compound 404] | 8.60 | 7.64 |  |  | 6.92 | 6.77 |  |  |  |  | 
18 | CCn1ncc(CN(C)C(=O)c2nc(-c3ccc(OCCNC)c(Cl)c3)nc3ccc(Cl)cc23)c1C [Compound 21] | 7.51 | 7.32 | 6.92 | 6.74 |  |  |  |  |  |  | 
19 | CCn1ncc(CN(C)C(=O)c2nc(-c3ccc(OCCNC(=O)OC(C)(C)C)c(Cl)c3)nc3ccc(Cl)cc23)c1C [Compound 117] | 6.57 | 5.37 | 5.62 | 5.52 |  |  |  |  |  |  | 
20 | CCn1ncc(CN(C)C(=O)c2nc(-c3cc(C)c4c(N)[nH]nc4c3)nc3ccc(Cl)cc23)c1C [Compound 459] | 7.86 | 8.35 | 7.26 | 7.22 |  |  |  |  |  |  | 
21 | CCc1ncc(CN(C)C(=O)c2nc(-c3cc(C)cc(NC4CNC4)c3)nc3ccc(Cl)cc23)n1C [Compound 566] | 7.43 | 7.95 | 6.47 | 6.09 |  |  |  |  |  |  | 
22 | CCn1ncc(CN(C)C(=O)c2nc(-c3cc(Cl)cc(CNC4CCNCC4)c3)nc3ccc(Cl)cc23)c1C [Compound 394] | 5.70 | 5.42 |  |  | 5.38 | 5.27 |  |  |  |  | 
23 | CCc1noc(CN(C)C(=O)c2cc(-c3ccc(NCCNC)c(C)n3)nc3ccc(Cl)cc23)n1 [Compound 575] | 5.47 | 5.41 | 5.82 | 5.82 |  |  |  |  |  |  | 
24 | CCn1ncc(CN(C)C(=O)c2cc(-c3cnc(CN(C)C)[nH]3)nc3ccc(Cl)cc23)c1C [Compound 146] | 5.40 | 5.64 | 5.00 | 5.19 |  |  |  |  |  |  | 
25 | CCn1ncc(CN(C)C(=O)c2cc(-c3ccc(NCCNC)c(C)n3)nc3ccc(Cl)cc23)c1C1CC1 [Compound 553] | 7.28 | 6.27 | 6.12 | 6.33 |  |  |  |  |  |  | 
26 | CCn1ncc(CN(C)C(=O)c2nc(-c3cc4nc[nH]c4cc3OC)nc3ccc(Cl)cc23)c1C [Compound 51] | 6.24 | 6.16 | 6.28 | 6.28 |  |  |  |  |  |  | 
27 | CCn1ncc(CN(C)C(=O)c2cc(-c3ccc(NCCNC)c(C)n3)nc3ccc(Cl)cc23)c1C [Compound 388] | 7.47 | 7.96 |  |  | 7.18 | 6.64 |  |  |  |  | 
28 | CCn1ncc(CN(C)C(=O)c2nc(-c3ccc(OCCOC)c(Cl)c3)nc3ccc(Cl)cc23)c1C [Compound 108] | 6.01 | 6.03 | 5.66 | 5.60 |  |  |  |  |  |  | 

Reference: US20220144812A1, “QUINOLINE DERIVATIVES AND THEIR USE FOR THE TREATMENT OF CANCER” (Epizyme, Inc., priority 2019, published 2022)
